# Values quoted from earlier work as cited in patent US20070043030A1, “Pharmaceutical compositions for treating premature ejaculation by pulmonary inhalation” (Vectura Limited, priority 2003, published 2007).
# Key:
# [1] = test system: male patients with primary PE; conditions: oral, 3 to 5 hours before planned intercourse, 4-week treatment period
# ejaculation = conditions: oral administration
# rapid ejaculation = conditions: daily oral doses of 25-50 mg
# [2] = oral formulation used for antidepressive indications
SMILES,efficacy in primary PE [1],delay in ejaculation (ejaculation),also measured
CCCc1nn(C)c2c(=O)[nH]c(-c3cc(S(=O)(=O)N4CCN(C)CC4)ccc3OCC)nc12 [sildenafil],optimal efficacy,,
CN[C@H]1CC[C@@H](c2ccc(Cl)c(Cl)c2)c2ccccc21 [sertraline],comparable efficacy,effective in producing a delay in ejaculation,
Fc1ccc([C@@H]2CCNC[C@H]2COc2ccc3c(c2)OCO3)cc1 [paroxetine],comparable efficacy,effective in producing a delay in ejaculation,
CNCCC(Oc1ccc(C(F)(F)F)cc1)c1ccccc1 (centres unmarked) [fluoxetine],,effective in producing a delay in ejaculation,
CNCCCN1c2ccccc2CCc2ccc(Cl)cc21 [desmethylclomipramine],,,plasma half-life (oral dose (clomipramine: single oral dose)): around 36 hours
"CN(C)CCCN1c2ccccc2CCc2ccc(Cl)cc21 [clomipramine, 3-chloro-5-[3-(dimethylamino)-propyl]-10,11-dihydro-5H-dibenz[b,f]azepine]",comparable efficacy,,"time of peak plasma levels after dosage (oral administration): two; effect on ejaculatory latency (rapid ejaculation): effective in significantly lengthening ejaculatory latencies; frequency of frequently reported side effects (dry mouth, sweating, constipation, blurred vision, nausea, drowsiness, headache, dizziness) [2]: > 10%"
